Results on 2 compounds are retold here after ChEMBL document CHEMBL4033712, “Synthesis and biological evaluation of new C-12(α/β)-(N-) sulfamoyl-phenylamino-14-deoxy-andrographolide derivatives as potent anti-cancer agents” (Bioorg Med Chem Lett, 2017).

The LC50 is the concentration that kills 50% of the test population. One may read the GI50 as the concentration giving 50% growth inhibition. The low end stands for greater sensitivity of the cells, the high end for lower sensitivity of the cells. The TGI is the concentration at which net growth stops. Read a low TGI as greater sensitivity of the cells.

For series [1], the system named is NHDF. The experiment in a line: (§1) Growth inhibition of human NHDF after 72 hrs by CellTiter-Glo luminescent cell viability assay. The class given is cell-based. The note with it: nhdf, 72 h.
Series [2] can be described thus: as §1. Format: cell-based. The note with it: NHDF cells.
Series [3] is described as follows: Growth inhibition of human NCI60 cells after 48 hrs by sulforhodamine B assay. Particulars: NCI60, 48 h. Format: functional.

Regarding `CN(C)C/C=C/C(=O)Nc1ccc(C(=O)Nc2ccc(Nc3ncc(Cl)c(-c4c[nH]c5ccccc45)n3)cc2)cc1`, in series [1], the LC50 was 0.250743 µM. For the same compound, in series [2], growth was halved (GI50 at 72 h) at 0.0466 µM.

In series [3], `C=C1CC[C@@H]2[C@](C)(CO)[C@H](O)CC[C@@]2(C)[C@@H]1C/C=C1/C(=O)OC[C@H]1O` [ANDROGRAPHOLIDE] displayed a GI50 of 16.2 µM and a TGI of 49.7 µM. In addition, the CC50 in series [3] (read-out: LC50 (the source's name)) is 80.9 µM.
